What was measured:
human CB2 receptor = molecular target: T1, human CB2 receptor (Homo sapiens, UniProt P34972); assay: CB2 radioligand competitive binding assay ([3H]CP 55,940 displacement)
T1 construct: membranes prepared in house
Procedure: Compounds of the present disclosure were tested for CB1 receptor binding affinity and for CB2 receptor binding affinity. As used herein, “binding affinity” is represented by the IC50 value, which was experimentally determined as described herein. The lower the IC50 value the higher the binding affinity. A compound of the present disclosure may be said to have “binding selectivity” If it has a higher binding affinity for one receptor compared to the other.
The membranes were prepared from CHO-K1 (Chinese hamster ovary) cells stably transfected with the human CB2 receptor (Cat. #ES-111-C; Perkin Elmer, Boston, MA). The cells were grown adherently and maintained in Ham's F12 medium containing 10% fetal bovine serum (FBS), penicillin, streptomycin and geneticin (G418) at 37° C. in a humid atmosphere of 5% CO2 following the manufacturer's Instructions.
For membrane preparation the cells were washed with PBS and scraped off the plates in cold homogenization buffer (25 mM HEPES (pH 7.4), 2 mM EDTA) containing protease inhibitor cocktail (Sigma Cat. #P8340). The cell suspension was homogenized with a Pro-PK-01200D Polytron Homogenizer (Pro Scientific) and then centrifuged for 30 min at 120,000×g. The supernatant was discarded and the pellet was re-suspended in the homogenization buffer and stored at −80° C. until the time of use.
In this experiment, 3H radiolabeled CP 55,940, i.e. [3H]CP 55,940 (Perkin Elmer, Boston, MA), was used as a radioligand for the CB2 receptor to determine the binding affinity of compounds for the CB2 receptor (Scheme 8; above).
The competition binding experiments (single dose and dose-response) were performed by incubating 0.6 nM of [3H]CP55,940 (specific activity 101 Ci/mmol, Perkin Elmer) and different concentrations of compounds disclosed herein with membranes prepared as above from CHO-K1 cells expressing human CB2 receptor (1 μg of protein/well), 50 mM Tris-HCl (pH 7.4), 5 mM MgCl2, 1 mM CaCl2, and 2 mg/mL BSA.
For the single dose experiments, the compound stocks (usually 10 mM in DMSO) were diluted to working stocks in the binding buffer to give the final compound concentrations of 10 μM and 1 μM. For the dose-response experiments the test compounds were sequentially diluted to provide the desired concentration range for the IC50 determination. In each case the compounds were pre-incubated with the membrane for 20 min, before adding the radioligand.
After incubation with the radioligand for 60 min at 37° C., the incubation was terminated by rapid filtration of assay mixture through MultiScreen®HTS^+ 96-well filter plates (Millipore, Cat. #MSFCNXB), pre-soaked for 60 min with 50 mM Tris-HCl (pH 7.4) containing 0.33% polyethylenimine (PEI). The nonspecific binding (NSB) was determined in the presence of 10 μM unlabeled CP55,940. After drying the filter plate at 50° C. for at least 60 min, the filter-bound radioactivity was determined by scintillation spectrometry using the 1450 MicroBeta Plate Counter (Perkin Elmer, Boston, MA). From the dose-response experiments, the IC50 values were determined (see Table 1, CB2 IC50).

human CB1 receptor [1] = molecular target: T2, human CB1 receptor (Homo sapiens, UniProt P21554); assay: biochemical; format: binding; design: membranes prepared in house
T2 sequence (P21554 whole entry): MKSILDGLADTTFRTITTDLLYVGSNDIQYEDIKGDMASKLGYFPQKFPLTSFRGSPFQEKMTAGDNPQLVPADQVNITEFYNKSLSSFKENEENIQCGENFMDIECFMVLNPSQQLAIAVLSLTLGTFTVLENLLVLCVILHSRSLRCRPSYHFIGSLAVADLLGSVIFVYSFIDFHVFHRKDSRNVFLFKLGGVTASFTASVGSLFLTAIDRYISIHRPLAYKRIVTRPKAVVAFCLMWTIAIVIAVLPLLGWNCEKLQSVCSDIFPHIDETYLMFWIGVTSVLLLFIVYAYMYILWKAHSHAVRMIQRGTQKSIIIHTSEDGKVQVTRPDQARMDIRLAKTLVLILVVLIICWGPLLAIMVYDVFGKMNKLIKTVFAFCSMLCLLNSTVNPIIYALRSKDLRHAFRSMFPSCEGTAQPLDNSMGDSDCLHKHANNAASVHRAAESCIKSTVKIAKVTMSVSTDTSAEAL

human CB1 receptor [2] = molecular target: T2, human CB1 receptor; assay: PathHunter β-Arrestin functional assay, CB1 receptor, agonist mode; format: cell-based; design: membranes prepared in house
Text: In the PathHunter® β-Arrestin system from DiscoveRx (Eurofins, Fremont, CA), a small peptide, the ProLink™ (PK), is fused to the intracellular sequence of a GPCR target, and a complementing peptide, the enzyme acceptor (EA) fragment, is fused to β-arrestin. After binding to its specific ligand, the GPCR target recruits β-arrestin, forcing the complementation of the two β-galactosidase enzyme fragments (EA and PK) to produce a functional β-galactosidase enzyme. The enzyme activity, and thus the amount of ligand bound to the GPCR, is detected with a single addition of a reagent cocktail to lyse the cells and produce a chemiluminescent signal before being analyzed using a traditional plate reader.
PathHunter® CHO-K1 CNR1 β-Arrestin cells (DiscoverRx, cat. Number 93-0959C2) stably expressing CB1 receptor (CB1R) were grown in Ham's F12 medium curtaining 10% fetal bovine serum (FBS), 1% penicillin/streptomycin, 300 μg/mL Hygromycin B and 800 μg/mL geneticin (G418) and maintained in 37° C. incubators at 5% CO2. […]
The incubation was terminated by adding the detection reagent (19 parts of 1% CHAPS, 5 parts Emerald-II and 1 part Galacton-Star), equivalent to 50% of the assay volume to each wells. Plates were incubated for 1 hour in the dark at room temperature, followed by chemiluminescence detection using a microplate reader.
Data were analysed by generating nonlinear regression curves. […]

human CB1 receptor [3] = molecular target: T2, human CB1 receptor; assay: CB1 receptor AequoScreen functional assay (agonist mode); format: cell-based; design: Perkin Elmer (host cells ES-000-A24); host or cells: CHO-K1 aeq/G16 (transient, FuGene)
Text: Aequorin is a photoprotein originating from the jellyfish Aequorea Victoria. The apo-enzyme (apoaequorin) requires a hydrophobic prosthetic group, coelenterazine, to be converted to aequorin, the active form of the enzyme. […] Upon calcium binding, aequorin oxidizes coelenterazine into coelenteramide with the production of CO2 and emission of light. The consumption of aequorin is proportional to the calcium concentration. Therefore, measurement of the light emitted upon oxidation of coelenterazine is a reliable tool for measurement of intracellular calcium flux. […]
FuGene from Promega (Catalog number selected: E2691) was used to transiently transfect CHO-K1 aeq/G16 cells with an expression vector containing the open reading frame (ORF) expression clone for CNR1 (NM_016083.4; bacterial stock; Gencopeia Inc.) at a ratio of 15 ng of plasmid DNA to 480,000 cells. […]
After incubation, the mixture was diluted 3-fold in assay media and kept under constant gentle agitation at room temperature. […] Cells were injected automatically over the serial diluted test compounds and CP55,940 using a liquid dispenser, and the luminescence was recorded over 10-30 seconds in a microplate reader.
Sigmoidal dose-response curves were generated using average Luminescent Counts Per Second (LCPS) which were recorded immediately after cells were mixed with compounds in agonist mode.

T1 sequence (P34972 whole entry): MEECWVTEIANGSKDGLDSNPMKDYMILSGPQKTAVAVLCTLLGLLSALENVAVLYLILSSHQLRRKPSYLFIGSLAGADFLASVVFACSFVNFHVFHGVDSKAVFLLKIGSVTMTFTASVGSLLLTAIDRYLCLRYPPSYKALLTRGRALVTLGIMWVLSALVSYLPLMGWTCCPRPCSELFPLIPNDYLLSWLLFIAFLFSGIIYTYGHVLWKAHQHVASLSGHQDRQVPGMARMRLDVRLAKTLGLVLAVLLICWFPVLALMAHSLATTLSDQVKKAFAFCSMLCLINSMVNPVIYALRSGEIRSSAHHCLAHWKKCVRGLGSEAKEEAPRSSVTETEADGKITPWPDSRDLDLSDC

For `CCCCCc1cc(O)c(C2C=C(C)CCC2)c(O)c1S(=O)(=O)N(CC)CC` (stereo not shown) [Compound 62c, N,N-diethyl-2,6-dihydroxy-5′-methyl-4-pentyl-1′,2′,3′,4′-tetrahydro-[1,1′-biphenyl]-3-sulfonamide], the IC50 (human CB2 receptor; [3H]CP 55,940 displacement, CHO-K1 membranes expressing human CB2 receptor) was less than 100 nM, the “Selectivity CB2” value (human CB2 receptor; fold difference in binding between CB1 and CB2, shown in the column of the receptor with higher affinity, 1.00 in both = about same affinity) was 31.82 fold and the IC50 (human CB1 receptor [1]) was 100 to 990 nM. For the same compound, the EC50 (human CB1 receptor [2]) was roughly 499 nM, the “relative efficacy in comparison to CP55,940” value (human CB1 receptor [2]; agonist mode, PathHunter CHO-K1 CNR1 β-Arrestin cells) was “about 56%” and the EC50 (human CB1 receptor [3]) was roughly 502 nM. The “relative efficacy in comparison to CP55,940” value (human CB1 receptor [3]; AequoScreen, agonist mode, CHO-K1 aeq/G16 cells transfected with CNR1) was “about 117%”.
